Experimental data: US20250136596A1, “MEMBRANE-ASSOCIATED TYROSINE- AND THREONINE-SPECIFIC CDC2-INHIBITORY KINASE (PKMYT1) INHIBITORS AND USES THEREOF” (Insilico Medicine IP Limited, priority 2022, published 2025)

Molecular target: PKMYT1 (Homo sapiens (Human), UniProt Q99640)
Assay: PKMYT1 HTRF Assay
Type: binding
Conditions: Tracer 178, GST-Tb; compound 10 μM to 0.5 nM; read-out: MYT1 HTRF IC50
How it was run: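 Compound (final 10 μM to 0.5 nM) preincubated with PKMYT1 enzyme 15 min at 25° C, then Tracer 178 added for 60 min at 25° C. GST-Tb added, 15 min at 25° C, before HTRF readout.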

PKMYT1, sequence (Q99640 whole entry): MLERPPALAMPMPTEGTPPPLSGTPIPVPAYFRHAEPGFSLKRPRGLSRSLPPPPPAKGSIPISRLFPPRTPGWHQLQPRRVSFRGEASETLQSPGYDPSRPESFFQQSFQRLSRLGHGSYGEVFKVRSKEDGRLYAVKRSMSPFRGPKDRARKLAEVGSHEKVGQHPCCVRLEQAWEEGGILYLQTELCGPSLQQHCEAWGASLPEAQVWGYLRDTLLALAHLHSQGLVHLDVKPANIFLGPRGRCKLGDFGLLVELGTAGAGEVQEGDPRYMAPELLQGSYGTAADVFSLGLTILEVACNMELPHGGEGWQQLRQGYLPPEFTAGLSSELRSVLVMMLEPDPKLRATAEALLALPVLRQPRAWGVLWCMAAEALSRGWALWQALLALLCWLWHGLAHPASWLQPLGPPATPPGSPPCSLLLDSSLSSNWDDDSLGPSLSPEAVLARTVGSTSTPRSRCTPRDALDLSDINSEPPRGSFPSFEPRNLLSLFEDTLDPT

`Cc1ccc(O)c(C)c1-c1cnc2[nH]c(-c3cnc(N4CCC(F)(F)C4)nc3)c(Cl)c2c1C#N` [Example 38, (R)-3-chloro-2-(2-(3,3-difluoropyrrolidin-1-yl)pyrimidin-5-yl)-5-(3-hydroxy-2,6-dimethylphenyl)-1H-pyrrolo[2,3-b]pyridine-4-carbonitrile] and `Cc1ccc(O)c(C)c1-c1cnc2[nH]c(-c3cnc(N4CC(O)C4)nc3)c(Cl)c2c1C#N` [Example 46, (R)-3-chloro-5-(3-hydroxy-2,6-dimethylphenyl)-2-(2-(3-hydroxyazetidin-1-yl)pyrimidin-5-y1)-1H-pyrrolo[2,3-b]pyridine-4-carbonitrile] cannot be ordered by IC50: under 10 nM for the first, under 10 nM for the second.

`Cc1ncc(-c2cc3c(C#N)c(-c4c(C)ccc(O)c4C)cnc3[nH]2)s1` [Example 59, (R)-5-(3-hydroxy-2,6-dimethylphenyl)-2-(2-methylthiazol-5-yl)-1H-pyrrolo[2,3-b]pyridine-4-carbonitrile] and `Cc1ccc(O)c(C)c1-c1cnc2[nH]c(-c3cnc(N)s3)cc2c1C#N` [Example 126, (S)-2-(2-aminothiazol-5-yl)-5-(3-hydroxy-2,6-dimethylphenyl)-1H-pyrrolo[2,3-b]pyridine-4-carbonitrile] cannot be ordered by IC50: under 10 nM for the first, under 10 nM for the second.

`Cc1ccc(O)c(C)c1-c1cnc2[nH]c(-n3cc(N)cn3)cc2c1C#N` [Example 133, (S)-2-(4-amino-1H-pyrazol-1-yl)-5-(3-hydroxy-2,6-dimethylphenyl)-1H-pyrrolo[2,3-b]pyridine-4-carbonitrile] and `Cc1ccc(O)c(C)c1-c1cnc2[nH]c(-n3cncn3)cc2c1C#N` [Example 121, (S)-5-(3-hydroxy-2,6-dimethylphenyl)-2-(1H-1,2,4-triazol-1-yl)-1H-pyrrolo[2,3-b]pyridine-4-carbonitrile] cannot be ordered by IC50: under 10 nM for the first, under 10 nM for the second.

`Cc1ccc(O)c(C)c1-c1cnc2[nH]c(-c3cnc(NC4CC4)s3)nc2c1` [Example 115, 3-(2-(2-(cyclopropylamino)thiazol-5-yl)-3H-imidazo[4,5-b]pyridin-6-yl)-2,4-dimethylphenol] and `Cc1ncc(-c2nc3cc(-c4c(C)ccc(O)c4C)cnc3[nH]2)cn1` [Example 114, 2,4-dimethyl-3-(2-(2-methylpyrimidin-5-yl)-3H-imidazo[4,5-b]pyridin-6-yl)phenol] fall in the same range of IC50: 50 to 500 nM for the first, 50 to 500 nM for the second.

`Cc1ncc(-c2[nH]c3ncc(-c4c(C)ccc(O)c4C)c(C#N)c3c2Cl)s1` [Example 60, (R)-3-chloro-5-(3-hydroxy-2,6-dimethylphenyl)-2-(2-methylthiazol-5-yl)-1H-pyrrolo[2,3-b]pyridine-4-carbonitrile] and `Cc1ccc(O)c(C)c1-c1cnc2[nH]c(-c3cnc(C(F)F)nc3)c(Cl)c2c1C#N` [Example 54, (S)-3-chloro-2-(2-(difluoromethyl)pyrimidin-5-yl)-5-(3-hydroxy-2,6-dimethylphenyl)-1H-pyrrolo[2,3-b]pyridine-4-carbonitrile] cannot be ordered by IC50: under 10 nM for the first, under 10 nM for the second.

`Cc1ccc(O)c(C)c1-c1cnc2[nH]c(-c3ccc(N4CCN(C)CC4)nc3)cc2c1` [Example 4, 2,4-dimethyl-3-(2-(6-(4-methylpiperazin-1-yl)pyridin-3-yl)-1H-pyrrolo[2,3-b]pyridin-5-yl)phenol] and `Cc1ccc(O)c(C)c1-c1cnc2[nH]c(-c3ccc4scnc4c3)cc2c1` [Example 22, 3-(2-(benzo[d]thiazol-5-yl)-1H-pyrrolo[2,3-b]pyridin-5-yl)-2,4-dimethylphenol] fall in the same range of IC50: 50 to 500 nM for the first, 50 to 500 nM for the second.

`Cc1ccc(O)c(C)c1-c1cnc2[nH]c(-c3cnc4[nH]ncc4c3)cc2c1C#N` [Example 123, (S)-5-(3-hydroxy-2,6-dimethylphenyl)-2-(1H-pyrazolo[3,4-b]pyridin-5-yl)-1H-pyrrolo[2,3-b]pyridine-4-carbonitrile] and `Cc1ccc(O)c(C)c1-c1cnc2[nH]c(-c3cnc4[nH]cnc4c3)cc2c1C#N` [Example 63, (R)-5-(3-hydroxy-2,6-dimethylphenyl)-2-(3H-imidazo[4,5-b]pyridin-6-y1)-1H-pyrrolo[2,3-b]pyridine-4-carbonitrile] cannot be ordered by IC50: under 10 nM for the first, under 10 nM for the second.

`Cc1ccc(O)c(C)c1-c1cnc2[nH]c(-c3cnc(N4CC(O)C4)nc3)cc2n1` [Example 18, 1-(5-(2-(3-hydroxy-2,6-dimethylphenyl)-5H-pyrrolo[2,3-b]pyrazin-6-yl)pyrimidin-2-yl)azetidin-3-ol] and `Cc1ccc(O)c(C)c1-c1cnc2[nH]c(-c3cnc(N4CC(C(=O)O)C4)nc3)cc2c1C#N` [Example 69, (R)-1-(5-(4-cyano-5-(3-hydroxy-2,6-dimethylphenyl)-1H-pyrrolo[2,3-b]pyridin-2-yl)pyrimidin-2-yl)azetidine-3-carboxylic acid] cannot be ordered by IC50: under 10 nM for the first, under 10 nM for the second.

`Cc1ccc(O)c(C)c1-c1cnc2[nH]c(-c3cnc(C4CC4)nc3)cc2c1C#N` [Example 56, (S)-2-(2-cyclopropylpyrimidin-5-yl)-5-(3-hydroxy-2,6-dimethylphenyl)-1H-pyrrolo[2,3-b]pyridine-4-carbonitrile] and `Cc1ccc(O)c(C)c1-c1cnc2[nH]c(-c3cnc(NC4CC4)nc3)cc2c1C#N` [Example 47, (R)-2-(2-(cyclopropylamino)pyrimidin-5-yl)-5-(3-hydroxy-2,6-dimethylphenyl)-1H-pyrrolo[2,3-b]pyridine-4-carbonitrile] cannot be ordered by IC50: under 10 nM for the first, under 10 nM for the second.

Compared with `Cc1ncc(-c2cc3c(C#N)c(-c4c(C)ccc(O)c4C)cnc3[nH]2)c(C)n1` (atropisomer, axis not shown) [Example 77, (R)-2-(2,4-dimethylpyrimidin-5-yl)-5-(3-hydroxy-2,6-dimethylphenyl)-1H-pyrrolo[2,3-b]pyridine-4-carbonitrile], `Cc1ncc(-c2cc3c(C#N)c(-c4c(C)ccc(O)c4C)cnc3[nH]2)c(N)n1` [Example 92, 2-(4-amino-2-methylpyrimidin-5-yl)-5-(3-hydroxy-2,6-dimethylphenyl)-1H-pyrrolo[2,3-b]pyridine-4-carbonitrile] is lower in IC50: 10 to 50 nM for the first, under 10 nM for the second. The second is the more potent here.

`Cc1ncc(-c2[nH]c3ncc(-c4c(C)ccc(O)c4C)c(C#N)c3c2C#CC2(O)COC2)cn1` [Example 111, (S)-5-(3-hydroxy-2,6-dimethylphenyl)-3-((3-hydroxyoxetan-3-yl)ethynyl)-2-(2-methylpyrimidin-5-yl)-1H-pyrrolo[2,3-b]pyridine-4-carbonitrile] and `Cc1ncc(-c2[nH]c3ncc(-c4c(C)ccc(O)c4C)c(C#N)c3c2C#CC(C)(C)O)cn1` [Example 110, (S)-5-(3-hydroxy-2,6-dimethylphenyl)-3-(3-hydroxy-3-methylbut-1-yn-1-yl)-2-(2-methylpyrimidin-5-yl)-1H-pyrrolo[2,3-b]pyridine-4-carbonitrile] cannot be ordered by IC50: under 10 nM for the first, under 10 nM for the second.

Compared with `Cc1ncc(-c2[nH]c3ncc(-c4c(C)ccc(O)c4C)c(C#N)c3c2Sc2ccccc2)cn1` [Example 113, 5-(3-hydroxy-2,6-dimethylphenyl)-2-(2-methylpyrimidin-5-yl)-3-(phenylthio)-1H-pyrrolo[2,3-b]pyridine-4-carbonitrile], `Cc1ncc(-c2[nH]c3ncc(-c4c(C)ccc(O)c4C)c(C#N)c3c2C(F)(F)F)cn1` [Example 112, 5-(3-hydroxy-2,6-dimethylphenyl)-2-(2-methylpyrimidin-5-yl)-3-(trifluoromethyl)-1H-pyrrolo[2,3-b]pyridine-4-carbonitrile] is lower in IC50: 50 to 500 nM for the first, 10 to 50 nM for the second. The second is the more potent here.

`COCCOc1ncc(-c2[nH]c3ncc(-c4c(C)ccc(O)c4C)c(C#N)c3c2Cl)cn1` [Example 76, (R)-3-chloro-5-(3-hydroxy-2,6-dimethylphenyl)-2-(2-(2-methoxyethoxy)pyrimidin-5-yl)-1H-pyrrolo[2,3-b]pyridine-4-carbonitrile] and `COCCOc1ncc(-c2cc3c(C#N)c(-c4c(C)ccc(O)c4C)cnc3[nH]2)cn1` [Example 75, (R)-5-(3-hydroxy-2,6-dimethylphenyl)-2-(2-(2-methoxyethoxy)pyrimidin-5-yl)-1H-pyrrolo[2,3-b]pyridine-4-carbonitrile] cannot be ordered by IC50: under 10 nM for the first, under 10 nM for the second.

First: Cc1ccc(O)c(C)c1-c1cnc2[nH]c(-c3cnn(CCO)c3)cc2c1 [Example 81, 3-(2-(1-(2-hydroxyethyl)-1H-pyrazol-4-yl)-1H-pyrrolo[2,3-b]pyridin-5-yl)-2,4-dimethylphenol]
Second: C#Cc1cc(-c2cc3c(C#N)c(-c4c(C)ccc(O)c4C)cnc3[nH]2)cnc1N [Example 87, (R)-2-(6-amino-5-ethynylpyridin-3-yl)-5-(3-hydroxy-2,6-dimethylphenyl)-1H-pyrrolo[2,3-b]pyridine-4-carbonitrile]
The IC50 of the first is higher: 50 to 500 nM for the first, under 10 nM for the second.

`Cc1ccc(O)c(C)c1-c1cnc2[nH]c(-c3cnc(N)nn3)cc2c1C#N` [Example 127, (S)-2-(3-amino-1,2,4-triazin-6-yl)-5-(3-hydroxy-2,6-dimethylphenyl)-1H-pyrrolo[2,3-b]pyridine-4-carbonitrile] and `Cc1ccc(O)c(C)c1-c1cnc2[nH]c(-c3cc[nH]n3)cc2c1C#N` [Example 120, (S)-5-(3-hydroxy-2,6-dimethylphenyl)-2-(1H-pyrazol-3-yl)-1H-pyrrolo[2,3-b]pyridine-4-carbonitrile] cannot be ordered by IC50: under 10 nM for the first, under 10 nM for the second.

`Cc1ccc(O)c(C)c1-c1cnc2[nH]c(-c3cnc(N4C5CC[C@@H]4COC5)nc3)cc2c1C#N` [Example 99, (5R)-2-(2-(3-oxa-8-azabicyclo[3.2.1]octan-8-yl)pyrimidin-5-yl)-5-(3-hydroxy-2,6-dimethylphenyl)-1H-pyrrolo[2,3-b]pyridine-4-carbonitrile] and `Cc1ccc(O)c(C)c1-c1cnc2[nH]c(-c3cnc(C(N)=O)nc3)cc2c1C#N` [Example 105, (R)-5-(4-cyano-5-(3-hydroxy-2,6-dimethylphenyl)-1H-pyrrolo[2,3-b]pyridin-2-yl)pyrimidine-2-carboxamide] cannot be ordered by IC50: under 10 nM for the first, under 10 nM for the second.

For `Cc1ccc(O)c(C)c1-c1cnc2[nH]c(-c3cnc(N4CC(C(=O)O)C4)nc3)c(Cl)c2c1C#N` [Example 70, (R)-1-(5-(3-chloro-4-cyano-5-(3-hydroxy-2,6-dimethylphenyl)-1H-pyrrolo[2,3-b]pyridin-2-yl)pyrimidin-2-yl)azetidine-3-carboxylic acid], the IC50 was under 10 nM.
